The values below come from patent US12383502B2, “Cold-water-dispersible chemical delivery system” (PHARMAKO BIOTECHNOLOGIES PTY LIMITED, priority 2017, dated 2025).

Read-outs that look alike come from different tables or passages of the source.

Data set [1] in a line: Dispersion of composition in water (visual). Type of data set: physicochemical. The settings on record: for liquid dispersibility / wettability: solid placed on liquid (FIG. 2).
Method: That the solid substance has non-wettable or poorly-wettable surfaces may be evidenced by the inability of the substance to effectively disperse in water at room temperature (i.e. when added to water, the substance substantially floats on top of the water or is poorly dispersed in the water, see FIG. 2). A sample was added to water to assay the dispersion of the composition. […] A sample of the composition was added to water and mixed and allowed to stand. […] A sample of the composition was added to water and mixed and allowed to stand.
Data set [2] in a line: PEA pharmacokinetics, single 300 mg dose. The settings on record: for Cmax: po, 300 mg. Type of data set: in vivo, human. As to the method: A single equivalent dose, randomised, double blinded study was used to evaluate the pharmacokinetics of 2 different PEA formulations administered in single 300 mg doses (standard PEA and Lipisperse PEA from Batch#MT20170615_01 described in Example 7). All trial participants, investigators conducting the trial and the biochemist analysing the samples were blinded to who was on each product.
Subjects were healthy adult male (n=10) and female (n=8; non-pregnant and non-lactating) volunteers between the ages of 18-30 years. All participants were advised to fast from 10:[…] the night prior to the study commencing until the collection of the first blood sample. Breakfast and lunch were provided to the participants at the centre. This is a standard feeding study with nutritionally balanced meals and snacks provided during the 0-6 hour sample collection. Subjects remained on site for the full 6 hours of sample collection. Only participants who provided at least 9 of the 11 samples collected between 0-24 hours had their data analysed.
For PEA pharmacokinetic analysis, blood samples (3mL collected into ethylenediaminetetraacetic acid (EDTA) containing tubes) were drawn prior to supplementation (hour 0) and at 30, 45, 60, 90, 120, 180, 240, 300, 360 minutes and 24 hours post supplementation. Once obtained, the blood collection tube was briefly mixed by inversion, placed on ice and centrifuged within 10 minutes of collection (600×g, 4° C. for 10 minutes) to separate the plasma. Once spun, EDTA plasma was carefully removed and approximately 3×500 μl aliquots made. Aliquots were temporarily stored at −20° C. (<48 hours) before being transported and stored at −80° C.
Plasma samples were removed from storage at −80° C. and allowed to thaw to room temperature. Once thawed, 100 μL of sample was added to a microfuge tube along with 20 μL of an internal standard solution (50 ng/mL of D8-arachidonic acid (D8-AA) in ethanol). Proteins were precipitated by adding 100 μL of acetone. The tubes were capped and vortex mixed for 15 seconds then put on ice for 10 minutes. The resulting solution was spun at 12,000×g for 10 minutes before the supernatant was removed into a new tube. To the supernatant, 800 μL of a methanol/chloroform solution (2:1) was added along with 240 μL of 3M HCl to achieve phase separation. This solution was vortex mixed for 10 seconds followed by gentle mixing on rotator. After 10 minutes of gentle rotation, the tubes were centrifuged at 12,000×g for 10 minutes with the resulting chloroform layer (bottom layer) transferred to a glass culture tube and dried under a stream of nitrogen gas.
Once dry, the samples were reconstituted in 100 μL of ethanol, mixed and the contents transferred to salinized GC-MS glass inserts and dried under nitrogen. Once dry, the samples were derivatized via the addition of 40 μL of pentafluorobenzylbromide (PFBBr, 10% in acetonitrile −4 μL of PFBBr and 36 μL of ACN) and 20 μL di-isopropylethylamine (DIPEA, 10% in acetonitrile−2 μL DIPEA and 18 μL of ACN) and vortex mixed for 5 seconds. Samples were then incubated at room temperature for 30 min before being dried under nitrogen and the insert placed into GC-MS vials. To each vial, 10 μL of anhydrous pyridine and 20 μL of bis-(trimethylsilyl)trifluoroacetamide and trimethylchlorosilane (BSTFA+TMCS, 99:1) was added, the vial capped and vortex mixed for 5 seconds. The samples were incubated for 20 min at 45° C. The samples were allowed to cool before 70 μL of anhydrous hexane was added and the samples place on the auto sampler rack for analysis.
The standard PEA was purchased from Sigma Aldrich (P0359-10MG) and stored at −20° C. as per manufacturer's instructions. The PEA standard was made up to 1 mM solution with ethanol. Working standard solutions were prepared by diluting the 1 mM solution (or 1 μM/mL) 1:10 with ethanol for a 100 nM/mL solution. This solution was further diluted 1:10 with hexane for a concentration of 10 nM/mL. […]

On to `CCCCCCCCCCCCCCCC(=O)NCCO` [PEA, Palmitoylethanolamide], for which, in data set [1], the “liquid dispersibility / wettability” value is “sitting on top of a liquid, without dispersion”.

Turning to `CCCCCCCCCCCCCCCC(=O)NCCO` [Standard PEA, Palmitoylethanolamide], the Cmax in data set [2] (both sexes, human, plasma, plasma, single oral 300 mg, n=9 per group, read-out: Cmax PEA) stood at 3010 ± 1240 ng/mL; in data set [2] (both sexes, human, plasma, plasma, single oral 300 mg, n=9 per group, read-out: Delta Cmax (peak change in PEA concentration from baseline)) it was 410 ng/mL. Further, the concentration at 24 h in data set [2] (both sexes, human, plasma, single oral 300 mg, data not shown, read-out: plasma PEA concentration at the 24 hours collection) is 2690 ± 1060 ng/mL. Further, the concentration at 0 h in data set [2] (both sexes, human, plasma, prior to supplementation (hour 0), n=9 per group, read-out: Baseline PEA concentration) came to 2590 ± 770 ng/mL. The molecule further had a Peak timing in data set [2] (plasma PEA, single oral 300 mg) of 45 min. Moreover, in data set [2] (single 300 mg dose, n=9 per group), the adverse events entry was “No adverse events”.

For `COc1cc(/C=C/C(=O)CC(=O)/C=C/c2ccc(O)c(OC)c2)ccc1O` [curcumin], the “liquid dispersibility / wettability” value in data set [1] is reported as “sitting on top of a liquid, without dispersion”.

Turning to `Oc1ccc(C=Cc2cc(O)cc(O)c2)cc1` [untreated resveratrol, resveratrol], in data set [1] (added to water, mixed and allowed to stand (FIG. 10, FIG. 16)), the “dispersion in water after mixing and standing” value is given as “does not disperse effectively”.
